Experimental data reported in PMC9525908, “α-Crystallin chaperone mimetic drugs inhibit lens γ-crystallin aggregation: Potential role for cataract prevention” (The Journal of Biological Chemistry, 2022).
Numbering of substitutions follows the chain as printed. Where “and” joins values, the source holds several entries; their conditions need not be identical. Equal values may be shown once. Read-outs that look alike come from different tables or passages of the source.

Legend:
WT-MγS [1] = target: T1, WT-MγS (Mus musculus, UniProt O35486); assay: End-point heat-mediated turbidity assay, WT-MγS; format: biochemical; conditions: for inhibition at 500 µM: read-out: Percent Inhibition of heat mediated aggregation, WT-MGS; for Effect on MγS absorbance: 400 μM drug, 72 °C, protein above 0.5 mg/ml
T1 construct: made in house; host or cells: E. coli BL21(DE3) pLysS, pET17b vector
T1 sequence (O35486 1-178): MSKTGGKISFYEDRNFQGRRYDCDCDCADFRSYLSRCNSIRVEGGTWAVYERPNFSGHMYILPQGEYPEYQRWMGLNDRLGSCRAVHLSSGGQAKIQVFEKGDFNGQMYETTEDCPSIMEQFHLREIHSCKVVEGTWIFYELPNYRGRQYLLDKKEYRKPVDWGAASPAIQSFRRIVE
Method: For end-point assays, HγD and MγS (1 mg/ml, 100 μl) in 50 mM K3PO4 buffer (pH 7.2) in set of triplicates in transparent flat bottom 96-well plates were heated at 72 °C for 20 min in the presence and absence of selected drugs at varying concentrations. Absorbance was measured at 600 nm with a SpectraMax iD5 (Molecular Devices). […]
Final DMSO concentration was 5% including in control samples. Microtiter plates were first incubated for 10 min at 72 °C and reincubated for 10 more min. Absorbance was measured at both 10 and 20 min total incubation time.

OPJ-MγS [2] = target: T2, OPJ-MγS (Mus musculus, UniProt O35486, F10S); assay: End-point heat-mediated turbidity assay, OPJ-MγS; format: biochemical; conditions: read-out: Percent Inhibition of heat mediated aggregation, OPJ-MGS
T2 construct: made in house; host or cells: E. coli BL21(DE3) pLysS, pET17b vector
T2 sequence (O35486 1-178 F10S): T1 sequence (O35486 1-178) with F10S
Method: Absorbance was measured at 600 nm with a SpectraMax iD5 (Molecular Devices).
Aggregation kinetics assays at 600 nm in the presence of varying concentrations (0, 100, 200, 300, 400, and 500 μM) of our selected drugs were also performed on mutants of HγD (W43R, W42Q, R14C, and R58H) and MγS (F9S) at a concentration of 1 mg/ml in 50 mM K3PO4 buffer (pH 7.2) in a total volume of 100 μl. WT-HγD and WT-MγS crystallin served as controls for their respective mutant versions. […] Absorbance was monitored every 10 min. […] All the experiments were run in duplicates or triplicates.

WT-HγD = target: T3, WT-HγD (Homo sapiens, UniProt P07320); assay: bis-ANS binding study, WT-HγD; conditions: 10 μM protein, 100 μM drug; read-out: Percent inhibition of binding of bis-ANS, WT-HγD
T3 construct: made in house; host or cells: E. coli BL21(DE3) pLysS, pET3d vector
T3 sequence (P07320 1-174): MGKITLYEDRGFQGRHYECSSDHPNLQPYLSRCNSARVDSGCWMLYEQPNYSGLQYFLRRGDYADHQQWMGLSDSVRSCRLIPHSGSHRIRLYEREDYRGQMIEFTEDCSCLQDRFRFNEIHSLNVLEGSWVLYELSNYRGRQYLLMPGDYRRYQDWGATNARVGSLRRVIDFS
Method: (§1) Extrinsic fluorescence spectra were recorded using bis-ANS, a well-known surface hydrophobicity probe. The spectra were recorded between 400 and 600 nm after exciting at 390 nm. The experiment was performed on 10 μM of HγD and MγS in 50 mM K3PO4 buffer with and without our candidate drugs (100 μM). Bis-ANS stock solution was prepared in methanol whose final percentage was maintained below 7 after mixing with proteins ([81]).

OPJ-MγS [3] = target: T2, OPJ-MγS; assay: bis-ANS binding study, OPJ-MγS; conditions: 10 μM protein, 100 μM drug; read-out: Percent inhibition of binding of bis-ANS, OPJ-MγS
Method: as §1

HγS_N143D = target: T4, HγS_N143D (Homo sapiens, UniProt P22914, N144D); assay: Thermal aggregation (72 °C, 20 min) turbidity assay, HγS_N143D; format: biochemical; conditions: 20 min, read-out: % Suppression; for inhibition: HγS_N143D, 75 μM protein, 72 °C 20 min
T4 sequence (P22914 1-178 N144D): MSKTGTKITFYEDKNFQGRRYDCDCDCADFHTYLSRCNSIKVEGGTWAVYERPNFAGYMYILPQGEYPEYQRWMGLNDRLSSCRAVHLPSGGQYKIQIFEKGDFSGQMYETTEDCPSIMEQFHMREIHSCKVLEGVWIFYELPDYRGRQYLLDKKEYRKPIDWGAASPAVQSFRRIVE
Text: (§2) For a review, see the study by Roskamp et al. ([38]). […] For the mechanistic studies below these two compounds together with either drug M, chosen mostly as negative control, or the entire set of six compounds were used for comparison purpose, whereby the words “drug” or “compound” are used interchangeably in the studies later.

[4] = tested on: γ-crystallins (bovine, HγD and HγS crystallins); assay: Mean aggregation suppression across all γ-crystallins tested; format: biochemical; parameters: concentration or dose not given beside the values; conditions: mean of all experiments in Table 2 (n=9)
Text: as §2
Table S 4: List of primers used for making WT -HγD mutants

WT-MγS [5] = target: T1, WT-MγS; assay: bis-ANS binding study, WT-MγS; conditions: read-out: Percent inhibition of binding of bis-ANS, WT-MγS
Method: as §1

HγS_N76D = target: T5, HγS_N76D (Homo sapiens, UniProt P22914, N77D); assay: Thermal aggregation (72 °C, 20 min) turbidity assay, HγS_N76D; format: biochemical; conditions: read-out: % Suppression; for inhibition: HγS_N76D, 75 μM protein, 72 °C 20 min
T5 sequence (P22914 1-178 N77D): T4 sequence (P22914 1-178 N144D) with N77D, D144N
Text: as §2

HγS_N14D = target: T6, HγS_N14D (Homo sapiens, UniProt P22914, N15D); assay: Thermal aggregation (72 °C, 20 min) turbidity assay, HγS_N14D; format: biochemical; conditions: read-out: % Suppression; for inhibition: HγS_N14D, 75 μM protein, 72 °C 20 min
T6 sequence (P22914 1-178 N15D): T4 sequence (P22914 1-178 N144D) with N15D, D144N
Text: as §2

[6] = 500 μM drug, end point of turbidity assay 72 °C 20 min

Row | inhibition at 500 µM (WT-MγS [1]; [6]) | inhibition at 500 µM (OPJ-MγS [2]; [6]) | inhibition (HγS_N143D) | inhibition at 100 µM (WT-MγS [5]; 10 μM protein, 100 μM drug) | inhibition (HγS_N76D) | inhibition (HγS_N14D) | Compound | inhibition at 100 µM (WT-HγD) | inhibition at 100 µM (OPJ-MγS [3]) | Mean % suppression / inhibition of γ-crystallin aggregation against thermal denaturation [4] | Effect on MγS absorbance (WT-MγS [1]) | inhibition at 500 µM (WT-MγS [1]) | inhibition at 500 µM (OPJ-MγS [2]) | inhibition at 125 µM (HγS_N143D) | inhibition at 100 µM (WT-MγS [5]) | inhibition at 125 µM (HγS_N76D) | inhibition at 125 µM (HγS_N14D)
1 | 55.5 ± 8.03% | 77.6 ± 0.21% | 25% | 11.94 ± 0.0018% | 57% | 51% | COC(=O)/C=C/C(C)=C\C=C\C(C)=C\C=C\C=C(C)\C=C\C=C(C)\C=C\C(=O)O [drug B, Bixin] | 27.86 ± 0.0009% | 11.83 ± 0.00091% | 49% and 48.8% |  |  |  |  |  |  | 
2 |  |  |  |  |  |  | Cc1cc(C(C#N)c2ccc(Cl)cc2)c(Cl)cc1NC(=O)c1cc(I)cc(I)c1O (centres unmarked) [drug C, Closantel] | 43.82 ± 0.0012% | 20.28 ± 0.00089% | 69% and 68.6% | blocked absorbance | 80.5 ± 1.87% | 82 ± 0.49% | 52% | 27.16 ± 0.0011% | 70% | 77%
3 |  |  |  |  |  |  | CC(C)=CCCC1(C)C=Cc2c(O)c3c(c(CC=C(C)C)c2O1)OC12C(=CC4CC1C(C)(C)OC2(C/C=C(/C)C(=O)O)C4O)C3=O (centres unmarked) [drug D, dihydrogambogic acid] | 34.5 ± 0.0006% | 7.76 ± 0.00097% | 54% |  | 80.4 ± 0.44% | 85.1 ± 0.68% | 30% | 19.49 ± 0.0018% | 59% | 76%
4 |  |  |  |  |  |  | CC(C)=CCC[C@]1(C)C=Cc2c(O)c3c(c(CC=C(C)C)c2O1)O[C@]12C(=C[C@@H]4C[C@H]1C(C)(C)O[C@@]2(C/C=C(/C)C(=O)O)C4=O)C3=O [drug G, Gambogic acid] | 44.64 ± 0.0011% | 31.62 ± 0.00057% | 64% and 64.2% | blocked absorbance | 80.5 ± 2.45% | 91.6 ± 0.09% | 48% | 40.72 ± 0.0008% | 55% | 73%
5 | 46.3 ± 4.23% | 33.6 ± 2.36% | 25% | 1.95 ± 0.0017% | 55% | 48% | O=C(O)CCCCCCCCCCCC[C@@H]1C=CCC1 [drug M, Chaulmoogric acid] | 4.28 ± 0.0003% | 3.48 ± 0.001% | 42% and 42.2% |  |  |  |  |  |  | 
6 |  |  |  |  |  |  | Oc1c(Cl)cc(Cl)c(Cl)c1Cc1c(O)c(Cl)cc(Cl)c1Cl [drug X, Hexachlorophene] | 15.16 ± 0.001% | 2.45 ± 0.00075% | 56% and 55.8% |  | 39.7 ± 3.42% | 60.9 ± 0.8% | 50% | 10.17 ± 0.0014% | 60% | 60%
